Measurements from US20120021434A1, “METHOD FOR TREATING B CELL REGULATED AUTOIMMUNE DISORDERS” (Synta Pharmaceuticals Corp., priority 2005, published 2012).

What was measured:
c-Rel = biological target: T1, c-Rel (Homo sapiens, UniProt Q04864); assay: Western blot of THP-1 nuclear extracts: c-Rel; format: cell-based; details: of the transcription factors analyzed
T1 construct: a western blot assay of THP1 nuclear c-Rel, p50 and p65 proteins was carried out; endogenous in cells; host or cells: THP-1; Jurkat
T1 sequence (Q04864 1-619): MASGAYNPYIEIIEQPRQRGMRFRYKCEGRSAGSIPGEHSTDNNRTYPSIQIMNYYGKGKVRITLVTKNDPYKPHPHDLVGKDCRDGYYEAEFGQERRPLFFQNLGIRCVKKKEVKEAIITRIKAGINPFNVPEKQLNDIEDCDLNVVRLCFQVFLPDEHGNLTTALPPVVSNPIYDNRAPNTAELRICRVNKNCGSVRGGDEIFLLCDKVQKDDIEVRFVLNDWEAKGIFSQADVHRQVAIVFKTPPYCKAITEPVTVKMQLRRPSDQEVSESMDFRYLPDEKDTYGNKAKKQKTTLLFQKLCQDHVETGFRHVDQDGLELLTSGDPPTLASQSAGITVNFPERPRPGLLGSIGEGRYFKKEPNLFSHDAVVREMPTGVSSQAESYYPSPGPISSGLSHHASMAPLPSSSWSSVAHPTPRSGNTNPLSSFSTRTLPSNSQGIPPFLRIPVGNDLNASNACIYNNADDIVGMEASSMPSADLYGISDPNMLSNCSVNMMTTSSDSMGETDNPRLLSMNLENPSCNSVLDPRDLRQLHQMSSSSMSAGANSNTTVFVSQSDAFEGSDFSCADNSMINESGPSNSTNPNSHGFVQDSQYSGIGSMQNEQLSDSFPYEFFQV
Protocol: The THP-1 cell, Jurkat cell and RAW264.7 cell line were obtained from American Type Culture Collection (Manassas, Va.). The THP-1 Jurkat cells were cultured in RPMI 1640 (ATCC, Manassas, Va.), supplemented with 10% FCS (ATCC, Manassas, Va.), and 1% penicillin/Streptomycin (Gibco-BRL, New York, N.Y.). The RAW264.7 cells were cultured in DMEM (ATCC, Manassas, Va.) supplemented with 10% FCS (ATCC, Manassas, Va.), and 1% penicillin/Streptomycin (Gibco-BRL, New York, N.Y.). The cells were stimulated with human or murine recombinant IFNγ (100 ng/ml) for 10 h followed by LPS (1 μg/ml) or SAC (0.025%) CpG ([…]) in the presence or absence of Compound 50 at different concentrations for an additional incubation.
THP-1 cells were suspended in 20 volumes of buffer A containing 10 mM KCl, 10 mM HEPES (pH 7.9), 1 mM MgCl2, 1 mM dithiothreitol (DTT), 0.1% Nonidet p40 (NP-40), and 0.5 mM phenylmethylsulfonyl fluoride (PMSF) and homogenized and centrifuged at 10,000 rpm at 4C afor 5 min. Nuclear pellets were then suspended in buffer C containing 400 mM NaCl, 20 mM HEPES 9, pH 7.9), 15 mM MgCl2, 0.2 mM EDTA, 1 mM DTT, 25% glycerol, 1 mM PMSF, and 10 ug of leupeptin, 20 ug of pepstatin, and 10 ug/ml antipain, incubated for 30 min at 4C, and centrifuged at 14,000 rpm for 20 min. The supernatants were dialyzed against buffer D containing 100 mM NaCl, 20 mM HEPES (pH 7.9), 20% glycerol, 1 mM PMSF, and 1 mM DTT.
The 10% SDS Polyacrylamide gels (Inveitrogen) were transferred to Pure Nitrocellulose membrane (BioRed, Hercules, Calif.). The membranes were blocked with 5% milk in TBST buffer and incubated with anti-c-Rel, anti-p65, anti-p50, anti-ICSBP or anti-PU-1 antibody (all the antibodies were purchased from Santa Cruz) at a dilution of 1:500 for 1 h at room temperature or overnight at 4C. […]
Of the transcription factors that have been analyzed, two factors, ICSBP and c-Rel, seem to be affected by Compound 4/Compound 50 treatment. […]

ICSBP = ICSBP expression (Western blot); format: cell-based; details: of the transcription factors analyzed
Protocol: The 10% SDS Polyacrylamide gels (Inveitrogen) were transferred to Pure Nitrocellulose membrane (BioRed, Hercules, Calif.). The membranes were blocked with 5% milk in TBST buffer and incubated with anti-c-Rel, anti-p65, anti-p50, anti-ICSBP or anti-PU-1 antibody (all the antibodies were purchased from Santa Cruz) at a dilution of 1:500 for 1 h at room temperature or overnight at 4C. The membranes were washed and incubated with Horseradish Peroxidase-conjugated anti-rabbit IgG or anti-mouse IgG (Amersham, England) at a dilution of 1:2000 at room temperature for 1 h.
Of the transcription factors that have been analyzed, two factors, ICSBP and c-Rel, seem to be affected by Compound 4/Compound 50 treatment. ICSBP binds indirectly to the Ets-2 site. The primary NF-κB trans-activator for IL-12 is the c-Rel/p50 heterodimer. Other dimers (p65/p50 and p50/p50) either lack activity or have inhibitory functions. Thus, c-Rel plays a role in IL-12 transcription as a result of both activation through NF-κB and its interaction with ICSBP. […] The membranes were blocked with 5% milk in TBST buffer and then incubated with anti-c-Rel, anti-p65, anti-p50, anti-ICSBP or anti-PU-1 antibody (all the antibodies were purchased from Santa Cruz) at a dilution of 1:500 for 1 h at room temperature or overnight at 4° C. The membranes were washed and incubated with Horseradish Peroxidase-conjugated anti-rabbit IgG or anti-mouse IgG (Amersham, England) at a dilution of 1:2000 at room temperature for 1 h.
ICSBP, whose expression was reduced by Compound 50, was over-expressed using co-transfection with the IL-12 promoter-Luc report system. The over-expression construct of ICSBP was generated by PCR from cDNA of human PBMC using primers as follow: ICSBP-exp-F: 5′-[…]-3′ (SEQ ID NO:1) and ICSBP-exp-R: 5′-[…]-3′ (SEQ ID NO:2), the resulting PCR products was ligated to pCI vector (Promega).

transcription factor c-Rel affected by treatment (c-Rel): affected
SMILES: C(=N\Nc1nc(OCCc2ccccn2)nc(N2CCOCC2)n1)/c1c[nH]c2ccccc12 [Compound 4]
transcription factor ICSBP affected by treatment (ICSBP): affected
